In patent US5641480A, “Hair care compositions comprising heteroatom containing alkyl aldonamide compounds” (Lever Brothers Company, Division of Conopco, Inc., priority 1994, dated 1997):
Like-named read-outs stand apart in the source and are kept apart here.

How the values were obtained:
[1] = Effectiveness in reducing surface tension (Example 93); type: physicochemical; conditions: 60 °C, estimated by extrapolation
Excerpt: As mentioned before, surface tension reduction depends on the replacement of water molecules at the interface by surfactant molecules, therefore the effectiveness of a surfactant in reducing interfacial surface tension should reflect the saturated concentration of surfactant at the interface relative to that in bulk liquid phase. During this process the surface tension of water steadily decreases as bulk phase surfactant concentration increases. This will continue until the concentration reaches the critical micelle concentration (CMC), above which the surface tension remains nearly unchanged and the interface is saturated with surfactant. The surface tension at the CMC is therefore very close to the minimum interfacial tension or maximum surface pressure that the system can achieve. The surface pressure at this point, IIcmc, is a suitable measure of the effectiveness of a surfactant in reducing surface tension and is given as:
.PI.cmc 20+2.3nRT(Γmax) log [CMC/C20 ]
n=1 which represents the number of ions whose surface concentration changes with the change in liquid phase suffactant concentration.
CMC/C20 =is the ratio of the critical micelle concentration to the bulk phase surfactant concentration necessary to reduce the surface tension of water by 20 dyn/cm.

[2] = Effectiveness of adsorption, surface excess concentration at surface saturation (Example 94); type: physicochemical; conditions: 60 °C, estimated by extrapolation
Excerpt: The surface excess concentration at surface saturation (Γmax) is defined as a measure of the effectiveness of surfactant adsorption at the water/air interface and represents the maximum value to which adsorption can be obtained. Effectiveness of adsorption is related to the interfacial area occupied by the surfactant molecule. The smaller the effective cross-sectional area of a surfactant at the interface, the greater its effectiveness of adsorption. The effectiveness of adsorption is an important factor in determining surfactant properties such as detergency, foaming, wetting or emulsification. While not wishing to be bound by theory, it is believed that surfactants that absorb effectively at the interface tend have tightly packed coherent interfacial films and often provide better surfactant benefits than those with loosely packed noncoherent films. The effectiveness of adsorption of C8 /C10 oxypropyl D-gluconamide was determined using the Gibbs equation given as: […]
ergs/cm^2 (which is equivalent to the slope of a plot of γ

[3] = Area per molecule at the water/air interface (Example 95); type: physicochemical; conditions: 60 °C, estimated by extrapolation
Excerpt: The area per molecule of a surfactant at the water/air interface provides information on the degree of packing and the orientation of the adsorbed surfactant molecule. While not wishing to be bound by theory, it is believed that surfactants that have small area per molecule values tend to pack more closely at the interface than those with large area per molecule values. From the surface excess concentration at surface saturation (Γmax), the area per molecule (am) of C8 /C10 oxypropyl D-gluconamide was determined and is given by:
am =1×10^16 /Nav Γmax

[4] = Rosen, cited from earlier work
[5] = Rosen, cited from earlier work; remark: listed apart in the source
[6] = Rosen, cited from earlier work; remark: listed apart in the source
[7] = Rosen, cited from earlier work; remark: listed apart in the source
[8] = Foam stability and enhancement of sodium dodecyl benzene sulfonate, Ross-Miles method (Example 85); type: physicochemical; conditions: 30 minutes, 10:90 mole %, 35° C., pH 10
Experimental: The triolein/calcium stearate mixture was dispersed to the above solutions using a high speed shear mixer at 60° C. and then cooled to 35° C. The triolein/calcium stearate mixture represents an extreme type of antifoam behavior found in sebum soil.
The foaming behavior of the above surfactants was determined by the Ross-Miles Foam Height Assay (Ross, J. and Miles, G. D. Am Soc. for Testing Material Method Dl173-63 Philadelphia, Pa. (1953); Oil & Soap (1958) 62:1260) and the cylinder shaking method.
In the Ross-Miles method, 200 mL of a surfactant solution contained in a pipette of specified dimensions with a 2.9-mm-i.d. orifice is allowed to fall 90 cm onto 50 mL of the same solution contained in a cylindrical vessel maintained at a given temperature by means of a water jacket. The height of the foam produced in the cylindrical vessel is read after 30 minutes has elapsed.
The foam stability and enhancement of the heteroatom containing alkyl aldonamides was further determined using a 10:90 mole percent solution of C8 /C10 oxypropyl D-gluconamide (C8 /C10 OPG): sodium dodecyl benzene sulfonate (C12 LAS) and compared to identical solutions of dodecyl D-gluconamide (C12 Gluc): sodium dodecyl benzene sulfonate in the presence and absence of the triolein/calcium stearate antifoam.

[9] = Clarity of prototype shampoo compositions with sodium lauryl sulfate (Example 87); type: physicochemical; conditions: room temperature, 6 months
Experimental: The prototype shampoo composition is as follows:
The above formulations were prepared by admixing the above ingredients in listed order and heating the mixture to about 80° C. with rapid stirring. The mixture was then cooled to about 40° C., placed in a clear jar and stored at room temperature for 6 months.

[10] = Critical micelle concentration, Wilhelmy plate method (Example 90); type: physicochemical
Experimental: The critical micelle concentration (CMC) is defined as the concentration at which a surfactant forms micelles in aqueous solution. Micellization is the preferred interfacial phenomena, since certain surfactant benefits such as detergency (the solubilization of soils), foaming, wetting or emulsification depend on the formation of these aggregates in solution.
The CMC value of C8 /C10 oxypropyl D-gluconamide was determined by plotting surface tension as a function of log(concentration) and extrapolating linear points to obtain an intersection point. The concentration at this point was taken as the CMC. The technique used was the Wilhelmy plate method and the instrument used was a Lauda Auto-Tensiometer. While wishing not to be bound to theory, it is believed that surfactants with low CMC values form micelles more readily at lower concentrations than those with high CMC values.

[11] = Foam stability and enhancement of prototype shampoo (sodium/ammonium lauryl sulfate), Ross-Miles Foam Height assay (Example 86); type: physicochemical; conditions: 45° C., 4.0% additive in prototype shampoo
Experimental: The results were compared to identical compositions comprising petrochemitcally derived foam stabilizing agents, in particular, alkanolamides and alcohol ethoxylates. The prototype shampoo composition is as follows:
The compositions were prepared by admixing the ingredients in listed order with rapid stirring at 45°-50° C. Foam stability and enhancement were measured at 0.1% based on sodium and ammonium lauryl sulfate (0.16% total solids) at 45° C. and 0 or 120 parts per million (ppm) hardness calcium:magnesium ion 2:1.

[12] = Viscosity of prototype shampoo compositions of Example 86, Brookfield Digital Viscometer; type: physicochemical; conditions: 4.0% thickener, Example 86 shampoo, 22° C.
Excerpt: The results are as follows:

[13] = Efficiency in surface tension reduction, pC20 (Example 92); type: physicochemical; conditions: 60 °C, estimated by extrapolation
Excerpt: Since surface tension reduction depends on the replacement of water molecules at the interface by surfactant molecules, the efficiency of a surfactant in reducing interfacial tension should reflect the concentration of surfactant at the interface relative to that in bulk liquid phase. A suitable measure of efficiency with which a surfactant performs this function can be described as pC20. This is defined as the negative logarithm of the bulk phase surfactant concentration necessary to reduce the surface tension of water by 20 dyn/cm and is given as:
pC20 =-log [C(-Δγ=20) ]=-log [C20]
C(-Δγ=20) =C20 is the bulk phase surfactant concentration necessary to reduce the surface tension of water by 20 dyn/cm.
In general, pC20 values are usually close to the minimum concentration needed to saturate the interface with surfactant molecules.

[14] = Surface tension at the water/air interface (Example 91); type: physicochemical; conditions: 60 °C
Experimental: An important characteristic feature that surfactants have is the tendency for them to absorb at the water/air interface in an oriented manner, thereby altering the interfacial free energy of that surface. The surface free energy per unit area or surface tension (γ), is a measure of this work and may be considered as the minimum amount of work required to bring sufficient surfactant molecules to the surface.
The surface tension (γ) value of C8 /C10 oxypropyl D-gluconamide was determined and is set forth below: […]

Compound	.PI.cmc (surface pressure) [1]	Γmax (surface excess concentration at surface saturation) [2]	am (area per molecule) [3]	pC20 ([4]; 25 °C)	.PI.cmc (surface pressure) ([5]; 25 °C)	CMC/C20 ([5]; 25 °C)	.PI.cmc (surface pressure) ([5]; 40 °C)	Γmax (surface excess concentration at surface saturation) ([6]; 25 °C)	Γmax (surface excess concentration at surface saturation) ([6]; 40 °C)	am (area per molecule) ([7]; 25 °C)	am (area per molecule) ([7]; 40 °C)	further results
sodium dodecyl benzene sulfonate [C12 LAS]												Foam Height, No Antifoam [8]: 131 mm; Foam Height, With Antifoam ([8]; triolein/calcium stearate 1 g/L): 61 mm
CCCCCCCCCCCCNC(=O)[C@H](O)[C@@H](O)[C@H](O)[C@H](O)CO [C12 D-Gluconamide, dodecyl D-gluconamide]												Appearance (Time) ([9]; 3.0% thickener in […] sodium lauryl sulfate shampoo): Precipitate (2 days); Appearance (Time) ([9]; 5.0% thickener in […] sodium lauryl sulfate shampoo): Precipitate (1 hour); CMC ([10]; 60 °C): None; water solubility ([10]; 60 °C table entry / discussion): insoluble in water and can not form micelles
cocoamide monoethanolamine [Cocoamide MEA]												Final FH after 60 Min. ([11]; 0 ppm hardness): 70 mm; Initial FH ([11]; 0 ppm hardness): 178 mm; Final FH after 60 Min. ([11]; 120 ppm hardness): 53 mm; Initial FH ([11]; 120 ppm hardness): 148 mm; Viscosity [12]: 1720 Centipoise
CCCCCCCCCCCCOCCOCCOCCOCCOCCOCCOCCO [Dodecylhepta(oxyethylene) Ether]	36.8 dyn/cm	2.71 × 10^-10 mole/cm^2	61.0 Å^2	5.26	38.3 dyn/cm	14.9	38.5 dyn/cm	2.90 × 10^-10 mole/cm^2	2.77 × 10^-10 mole/cm^2	57.3 Å^2	59.9 Å^2	pC20 [13]: 5.41; pC20 ([4]; 40 °C): 5.28; CMC/C20 ([5]; 40 °C): 13.9
CCCCCCCCCCCC(=O)N(CCO)CCO [Lauramide DEA, lauramide diethanolamine]												Final FH after 60 Min. ([11]; 0 ppm hardness): 151 mm; Initial FH ([11]; 0 ppm hardness): 190 mm; Final FH after 60 Min. ([11]; 120 ppm hardness): 126 mm; Initial FH ([11]; 120 ppm hardness): 159 mm; Viscosity [12]: 2376 Centipoise
O [Water]												γ (surface tension) [14]: 60.2 dyn/cm

The next lines start with results.

.PI.cmc (surface pressure) [1]	Γmax (surface excess concentration at surface saturation) [2]	am (area per molecule) [3]	Compound	pC20 ([4]; 25 °C)	.PI.cmc (surface pressure) ([5]; 25 °C)	CMC/C20 ([5]; 25 °C)	.PI.cmc (surface pressure) ([5]; 40 °C)	Γmax (surface excess concentration at surface saturation) ([6]; 25 °C)	Γmax (surface excess concentration at surface saturation) ([6]; 40 °C)	am (area per molecule) ([7]; 25 °C)	am (area per molecule) ([7]; 40 °C)	further results
41.4 dyn/cm	3.83 × 10^-10 mole/cm^2	45.4 Å^2	CCCCCCCCCCCCOCCOCCOCCO [Dodecyltri(oxyethylene) Ether]	5.34	44.1 dyn/cm	11.4	43.1 dyn/cm	3.98 × 10^-10 mole/cm^2	3.90 × 10^-10 mole/cm^2	41.7 Å^2	42.5 Å^2	
40.7 dyn/cm	3.01 × 10^-10 mole/cm^2	53.3 Å^2	CCCCCCCCCCCCOCCOCCOCCOCCO [Dodecyltetra(oxyethylene) Ether]	5.34	43.4 dyn/cm	13.7	42.0 dyn/cm	3.63 × 10^-10 mole/cm^2	3.41 × 10^-10 mole/cm^2	45.7 Å^2	48.7 Å^2	CMC/C20 ([5]; 40 °C): 11.8
40.7 dyn/cm	3.16 × 10^-10 mole/cm^2	52.3 Å^2	CCCCCCCCCCCCOCCOCCOCCOCCOCCO [Dodecylpenta(oxyethylene) Ether]	5.37	41.5 dyn/cm	15.0	41.2 dyn/cm	3.31 × 10^-10 mole/cm^2	3.28 × 10^-10 mole/cm^2	50.1 Å^2	50.6 Å^2	
